# Reference: ChEMBL document CHEMBL3390842 (Medchemcomm, 2012)
# Calls of active or inactive are those of the source. No cut-off for these calls is given here.
# Tests used:
# [1] = target: T1, G-protein coupled receptor 35 (Homo sapiens, UniProt Q9HC97); assay type: cell-based, U2OS
# [2] = target: T1, G-protein coupled receptor 35; assay type: cell-based, HT-29
# [3] = target: T1, G-protein coupled receptor 35; experiment: Agonist activity at GPR35 in human HT-29 cells assessed as induction of whole cell dynamic mass redistribution at 32 uM after 50 mins by resonant waveguide grating biosensor analysis in presence of GPR35 antagonist ML-145; assay type: cell-based
# [4] = target: T1, G-protein coupled receptor 35; experiment: Agonist activity at GPR35 in human HT-29 cells assessed as induction of whole cell dynamic mass redistribution at 128 uM after 50 mins by resonant waveguide grating biosensor analysis in presence of GPR35 antagonist ML-145; assay type: cell-based
# T1 sequence (Q9HC97 whole entry): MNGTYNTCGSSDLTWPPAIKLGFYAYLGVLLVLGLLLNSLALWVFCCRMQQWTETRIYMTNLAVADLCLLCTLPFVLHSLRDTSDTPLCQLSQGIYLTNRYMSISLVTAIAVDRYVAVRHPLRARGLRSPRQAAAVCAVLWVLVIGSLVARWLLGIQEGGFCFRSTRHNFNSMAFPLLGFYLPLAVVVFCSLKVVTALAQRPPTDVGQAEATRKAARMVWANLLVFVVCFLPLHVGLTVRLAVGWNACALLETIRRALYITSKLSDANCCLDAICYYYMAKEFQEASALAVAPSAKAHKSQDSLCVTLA
Compound,EC50 [1],EC50 [2],Activity [3],Activity [4]
CC(=O)C(=Cc1cc(O)c(O)c([N+](=O)[O-])c1)C(C)=O [NITECAPONE],17.1 µM,0.82 µM,–,–
O=C(c1cc(O)c(O)c([N+](=O)[O-])c1)c1ccccc1F,54.4 µM,8.66 µM,Active,–
CCN(CC)C(=O)/C(C#N)=C/c1cc(O)c(O)c([N+](=O)[O-])c1 [ENTACAPONE],65.6 µM,5.66 µM,–,–
O=[N+]([O-])c1cc(O)c(O)c([N+](=O)[O-])c1,–,–,inactive,–
O=[N+]([O-])c1ccc(O)c([N+](=O)[O-])c1,–,–,–,Active
